Cytotoxicity data for 71 compounds are collected here from ChEMBL document CHEMBL3507680, “University of Dundee, Gates Library screen for HepG2 cell viability”.

A short description of this series: Human HepG2 cell viability assay in 384 well format. The format is toxicity, cell-based. Set-up: dose 125 nL, time 70.5 hour; cytotoxicity at 70.5 h: concentration not given beside the values. The following applies: HepG2 cells, read-out: Inhibition.
For the compound `COc1nccc(N2CC[C@@H](N3CCN(C)CC3)[C@H](O)C2)c1C#N`, the cytotoxicity at 70.5 h was -6.47%.

With `COc1ccc(-c2cc(N)ccn2)c(OC)c1OC`, the cytotoxicity at 70.5 h is -9.71%.

Consider `CN1CCN(CC(C)(C)C)CC1CCO` (stereo unspecified), for which the cytotoxicity at 70.5 h was -3.64%.

As for `Cc1occc1C(=O)N1CCCC1c1ccc(C(=O)N2CCOCC2)s1` (stereo unspecified), the cytotoxicity at 70.5 h was 9.73%.

Regarding `COC(C)(C)CNC(=O)C1CCC(=O)N(C2CCCC2)C1` (stereo unspecified), the cytotoxicity at 70.5 h was 0.695%.

As for `COc1ccc(CN2C[C@@H]3CC[C@H](C2)N(S(C)(=O)=O)C3)cc1`, the cytotoxicity at 70.5 h was -7.94%.

As to `C/C=C(\C)CN1C[C@@H](NC(=O)c2ccc(O)c(Cl)c2)C[C@H]1C(=O)NCC`, the cytotoxicity at 70.5 h is -11%.

Take `Cc1nccc(N2CCC(=O)N(CC3CC3)C(C(C)C)C2)n1` (stereo unspecified): the cytotoxicity at 70.5 h was -1.5%.

For the compound `Nc1nc(CCCNC(=O)c2ccc(C3CCCNC3)cc2)cs1` (stereo unspecified), the cytotoxicity at 70.5 h was -7.45%.

With `NC(=O)COc1ccc(CN2CCNC(C(=O)NC3CC3)C2)cc1Cl` (stereo unspecified), the cytotoxicity at 70.5 h was -10.1%.

As for `CCNC(=O)Cn1ncc(N(C)CCc2ccccc2)cc1=O`, the cytotoxicity at 70.5 h was 8.48%.

As to `CC(=O)c1cccc(-c2nc3c([nH]2)CCNC3)c1F`, the cytotoxicity at 70.5 h was -13.2%.

Turning to `CCSCC(C)NCc1cn2ccccc2n1` (stereo unspecified), the cytotoxicity at 70.5 h was -20.2%.

With `CSc1ccc(CN(C(=O)c2cc(=O)[nH]c(=O)[nH]2)C2CC2)cc1`, the cytotoxicity at 70.5 h turned out to be 6.51%.

On to `O=C1NCCN1CCNc1cc(-c2ccncc2)nc2ccnn12`, for which the cytotoxicity at 70.5 h is -10.3%.

For `CC(C)c1nc(CN(C)C(=O)c2ccc(CN3CCCCC3)cc2)cs1`, the cytotoxicity at 70.5 h was -7.38%.

Regarding `CCOc1ccccc1C(C(=O)O)N(C)CC1CCOCC1` (stereo unspecified), the cytotoxicity at 70.5 h amounted to 21.4%.

On to `COc1ccc(N2CCN(C(=O)C3CN(C)C(=O)N3)CC2(C)C)cc1` (stereo unspecified), for which the cytotoxicity at 70.5 h is -8.78%.

For the compound `Cc1nc2c(C)cccc2cc1C(=O)N1CCC2(CC1)NCCNC2=O`, the cytotoxicity at 70.5 h is -15.8%.

Regarding `Cc1nc2ccccn2c1CN1C[C@@H](CN2CCOCC2)[C@@H](CO)C1`, the cytotoxicity at 70.5 h came to 28.6%.

For `CN(CCc1ncnn1-c1ccccc1Cl)C1CCS(=O)(=O)C1` (stereo unspecified), the cytotoxicity at 70.5 h was -17.7%.

Regarding `CS(=O)(=O)Cc1nc(C2CC2)nn1-c1ccccn1`, the cytotoxicity at 70.5 h came to 4.03%.

For `CCS(=O)(=O)c1ncc(CN(C)Cc2cccc(OC)c2)n1CCOC`, the cytotoxicity at 70.5 h was -6.87%.

For the compound `CN1C(=O)CC(C(=O)O)C12CCN(Cc1cc(F)ccc1Cl)CC2` (stereo unspecified), the cytotoxicity at 70.5 h was -9.93%.

As for `Cc1ncsc1-c1nc(Cc2cccs2)nn1C1CCN(C)CC1`, the cytotoxicity at 70.5 h is -4.07%.

In the case of `Cc1ccc(OC2(C(=O)O)CCN(C(=O)c3cccs3)CC2)cn1`, the cytotoxicity at 70.5 h is 17.4%.

As for `CCCn1cnnc1CNC1CCCC1`, the cytotoxicity at 70.5 h is 5.01%.

As for `CCCc1cc(C(=O)N(CC)Cc2ccncc2)[nH]n1`, the cytotoxicity at 70.5 h was -7.59%.

For the compound `CC1CN(CCC(=O)NCCc2cccnc2)Cc2ccccc2O1` (stereo unspecified), the cytotoxicity at 70.5 h was 9.39%.

With `CCNC(=O)[C@@H]1C[C@H](NC(=O)c2cncnc2C)CN1Cc1ccsc1`, the cytotoxicity at 70.5 h was -17%.

Turning to `C[C@H](NC(=O)c1cccc(CCC(C)(C)O)c1)C(N)=O`, the cytotoxicity at 70.5 h is -0.496%.

As to `CN(C)C(=O)c1ccc(C2CCCN2C(=O)c2ccccc2N(C)C)s1` (stereo unspecified), the cytotoxicity at 70.5 h is -1.33%.

As for `COC(=O)N1CCC(Oc2ccc(C(=O)NCCN(C)C)cc2Cl)CC1`, the cytotoxicity at 70.5 h was -8.08%.

On to `Cc1nc(CN2CCCC(CCc3ccccc3F)C2)c[nH]1` (stereo unspecified), for which the cytotoxicity at 70.5 h turned out to be 1.04%.

As for `CC(C)(Cn1cnc(-c2ccccc2)c1-c1ccco1)N1CCOCC1`, the cytotoxicity at 70.5 h is -10.2%.

`CCC(NC(=O)c1cnc(N(C)C)nc1C)c1ccncc1` (stereo unspecified): the cytotoxicity at 70.5 h is -6.22%.

`O=C(NCCC1CN(Cc2c[nH]cn2)CCO1)c1ccccc1O` (stereo unspecified): the cytotoxicity at 70.5 h came to 23%.

Regarding `Cc1ocnc1C(=O)N(Cc1cccnc1)C[C@@H]1CCC(=O)N1`, the cytotoxicity at 70.5 h was -8.79%.

For the compound `CCOc1ncccc1Cn1cc(-c2cncnc2)nn1`, the cytotoxicity at 70.5 h is -15.8%.

Take `Cc1ccc2ncccc2c1CN1CC[C@H](N(C)C)[C@H](CCC(=O)O)C1`: the cytotoxicity at 70.5 h is -7.41%.

For the compound `Cc1ccsc1-c1nnc(SCC(=O)O)n1C(C)c1ccccc1` (stereo unspecified), the cytotoxicity at 70.5 h was -5.54%.

`CCN1CCCCC1C(=O)N1CCc2onc(-c3ccc(Cl)cc3)c2C1` (stereo unspecified): the cytotoxicity at 70.5 h was -12.9%.

Turning to `COc1cccn(CC(=O)N(C)CCSC)c1=O`, the cytotoxicity at 70.5 h was -12.7%.

Take `CCN(Cc1ccc2cccc(O)c2n1)CC1CCCO1` (stereo unspecified): the cytotoxicity at 70.5 h is 12.5%.

For `Cc1cc(C)c2c(N3CCCN(C(=O)C4CCC4)CC3)ncnc2n1`, the cytotoxicity at 70.5 h is -6.75%.

For `CNC(=O)CCN1CCC(c2nnc(Cn3cccn3)n2C2CC2)CC1`, the cytotoxicity at 70.5 h is -8.33%.

For `Oc1ccccc1N1CCN(c2ncnc3sc4c(c23)CCNC4)CC1`, the cytotoxicity at 70.5 h amounted to 2.19%.

As to `CCn1c(-c2ccccc2)nn(CC(=O)NCCc2ccc(C)s2)c1=O`, the cytotoxicity at 70.5 h was 13.9%.

For the compound `OC1(CN2CCC(Oc3cccnc3)CC2)CNCCOC1` (stereo unspecified), the cytotoxicity at 70.5 h was -7.48%.

As for `COC(=O)N1CCC2(CC1)N=C(CCC(C)C)NC2=O`, the cytotoxicity at 70.5 h is -8.4%.

Turning to `O=C(CCC1CCN(C(=O)c2cnco2)CC1)NCc1cccc(Cl)c1`, the cytotoxicity at 70.5 h is -5.59%.

For `CC(=O)N[C@@H](CC(C)C)C(=O)N1CCC(n2cc(CO)nn2)CC1`, the cytotoxicity at 70.5 h is -4.38%.

With `COc1ccc(-c2ccccc2CCN)c(OC)c1`, the cytotoxicity at 70.5 h is -10.1%.

For the compound `Cc1cnccc1NCCNC(=O)C1CCCN(Cc2ccco2)C1` (stereo unspecified), the cytotoxicity at 70.5 h was 9.92%.

For `COCc1ccc(C(=O)N2CCc3c(ncnc3N3CCOCC3)C2)o1`, the cytotoxicity at 70.5 h was -4.54%.

Regarding `COc1cc(C)c(C2CC(=O)Nc3cc(NS(C)(=O)=O)ccc32)cc1C` (stereo unspecified), the cytotoxicity at 70.5 h was 0.99%.

For the compound `CCCc1nnc2sc(C3CCN(CCOC)CC3)nn12`, the cytotoxicity at 70.5 h is -3.34%.

Take `COc1ccc(F)cc1NC(=O)NCC1(CN2CCOCC2)CC1`: the cytotoxicity at 70.5 h was -0.333%.

`CC(Nc1ncnc2sccc12)c1cnn(C)c1` (stereo unspecified): the cytotoxicity at 70.5 h is -12.3%.

`CC(C)C[C@@H](N)C(=O)N(C)Cc1csc(C(C)C)n1`: the cytotoxicity at 70.5 h came out at 2.05%.

For `CC(C)=CCN1CCNC(=O)C1CC(=O)N1CCc2sccc2C1` (stereo unspecified), the cytotoxicity at 70.5 h was -3.67%.

Take `CC(Nc1nc(-c2ccncc2)nc2c1CCNC2)c1ccccc1` (stereo unspecified): the cytotoxicity at 70.5 h is -9.03%.

Turning to `COc1ccc(C(=O)NCc2ccon2)cc1F`, the cytotoxicity at 70.5 h was -5.07%.

As for `CCOC(=O)N1CCC2(CCCN(C3CCOCC3)C2=O)C1` (stereo unspecified), the cytotoxicity at 70.5 h is -8.17%.

With `CCOCCCNc1nc2c(s1)c(C)nn2C`, the cytotoxicity at 70.5 h was -5.29%.

In the case of `CS(=O)(=O)NC1CCN(C(=O)c2coc(CN3CCOCC3)c2)CC1`, the cytotoxicity at 70.5 h was -2.89%.

`Cc1cc(C)c(C(=O)NC(CN2CCCC2)c2ccccc2)c(=O)[nH]1` (stereo unspecified): the cytotoxicity at 70.5 h is -20.3%.

For `Cc1oc(-c2cccc(F)c2F)nc1CN(C)CCC(C)(C)O`, the cytotoxicity at 70.5 h was determined as 26.5%.

As to `c1ccc2oc(N3CCCC4(CCOC4)C3)nc2c1` (stereo unspecified), the cytotoxicity at 70.5 h was -5.71%.

Regarding `CC(=O)Nc1ccc(CN2C[C@H]3CC[C@@H]2CN(c2ncccn2)C3)cc1`, the cytotoxicity at 70.5 h is -4.04%.

With `CCCc1nnc(NCCc2noc(C3CC3)n2)o1`, the cytotoxicity at 70.5 h was -9.24%.
